We go through 10 compounds from paper PMC12473689, “Drug Metabolism and Pharmacokinetics of Oxazolo[4,5-c]quinoline Analogs as Novel Interleukin-33 Inhibitors” (Pharmaceutics, 2025).

Each structure is given as a SMILES string. Structures can show the parent of a compound that is named as a salt.

For data set [1], the system named is flavin-containing monooxygenase (FMO) in HLM. Put plainly: FMO involvement: metabolic stability in control vs heat-inactivated human liver microsomes. The class given is in vitro ADME. As to conditions: pre-incubated 45 °C for 5 min vs control, 60 min incubation, NADPH. As to the method: (§1) To determine the potential involvement of flavin-containing monooxygenase (FMO), a parallel assay was conducted with HLM and MLM [31]. To selectively inactivate FMO, microsomes (20 mg protein/mL) were pre-incubated at 45 °C for 5 min. Non-inactivated microsomes served as the control. Subsequently, metabolic incubations were performed with both control and heat-inactivated microsomes at 37 °C for 60 min. The incubation procedure was identical to that described above for the S9 fractions, with the exception that NADPH was used as the sole cofactor.

Data set [2] concerns flavin-containing monooxygenase (FMO) in MLM. The data set is described as follows: FMO involvement: metabolic stability in control vs heat-inactivated mouse liver microsomes. As to conditions: pre-incubated 45 °C for 5 min vs control, 60 min incubation, NADPH. It counts as in vitro ADME, male ICR mouse. How it is done: as §1
For orientation: Liver microsomes are vesicles of endoplasmic reticulum, rich in cytochrome P450 enzymes.

The nature of data set [3]: Binding in human liver S9 fraction by equilibrium dialysis (RED). The class given is in vitro ADME. As to conditions: human, liver S9 fraction, pH 7.4, human liver S9, 1 mg/mL protein, equilibrium dialysis 37 °C 4 h, mean ± SD (n = 3); read-out: fu (%) in liver S9 fractions. As to the method:
(§2) The nonspecific binding of KB-1517 and KB-1518 in human and mouse plasma and liver S9 fractions was determined by equilibrium dialysis using a Rapid Equilibrium Device (RED) system (Thermo Fisher Scientific, Seoul, Republic of Korea).
(§3) Working solutions (200 μM for plasma, 60 μM for S9 fractions) were prepared in 40% aqueous acetonitrile. These were diluted 20-fold into either plasma or S9 incubation buffer (1 mg/mL protein, 200 mM Tris-HCl, 2 mM MgCl2, pH 7.4) to create the final dosing solutions.
(§4) For the dialysis, RED inserts (8 kDa MWCO) were used. Into each device, 200 μL of a dosing solution was added to the sample chamber, and 350 μL of PBS was added to the buffer chamber. The plate was sealed and incubated at 37 °C for 4 h on an orbital shaker (100 rpm) to allow the system to reach equilibrium.
(§5) Following incubation, 50 μL aliquots were taken from both chambers. To ensure analytical consistency, the samples were matrix-matched: the sample chamber aliquot was mixed with 50 μL of PBS, and the buffer chamber aliquot was mixed with 50 μL of the corresponding blank matrix (plasma or S9 incubation buffer). Proteins were then precipitated by adding 200 μL of ice-cold acetonitrile containing diclofenac (1 μg/mL) as IS. The samples were subsequently vortexed, sonicated for 5 min, and centrifuged at 4000× g for 20 min. Finally, a 100 μL aliquot of the resulting supernatant was diluted with 100 μL of HPLC-grade water in a 96-well plate for subsequent LC-MS/MS analysis.
(In equilibrium dialysis only unbound substance equilibrates across the membrane.)

The nature of data set [4]: Binding in mouse liver S9 fraction by equilibrium dialysis (RED). The note with it: ICR, mouse, liver S9 fraction, pH 7.4, mouse liver S9, 1 mg/mL protein, equilibrium dialysis 37 °C 4 h, mean ± SD (n = 3); read-out: fu (%) in liver S9 fractions. The class given is in vitro ADME. As to the method:
as §2, §3, §4, §5

Data set [5] can be described thus: Plasma protein binding by equilibrium dialysis (RED), human plasma. The note with it: equilibrium dialysis 37 °C 4 h, mean ± SD (n = 3), read-out: fu (%) plasma protein binding. The class given is in vitro ADME. How it is done: as §2, §3, §4, §5
Data set [6] can be described thus: Plasma protein binding by equilibrium dialysis (RED), mouse plasma. It counts as in vitro ADME. The note with it: male, ICR, equilibrium dialysis 37 °C 4 h, mean ± SD (n = 3), read-out: fu (%) plasma protein binding. As to the method: as §2, §3, §4, §5
The nature of data set [7]: Metabolite identification in liver S9 incubations. The note with it: S9 1 mg protein/mL, 60 min, 37 °C, H: human, M: mouse. It counts as in vitro ADME. As to the method: The incubation mixture (final volume 200 µL) contained: 125 µL of deionized water, 40 µL of Tris mix buffer, 10 µL of 20 mg protein/mL S9 fraction (final concentration 1 mg protein/mL), and 5 µL of the test compound working solution (final concentration 3 µM). The final concentrations of DMSO and acetonitrile were 0.03% and 1%, respectively. The mixture was pre-incubated at 37 °C for 5 min in a shaking water bath. The reaction was initiated by adding 20 µL of the combined cofactor solution (final concentrations: 1 mM NADPH, 0.5 mM UDPGA, 0.1 mM PAPS, 2.5 mM GSH). Control incubations were performed without the cofactor mixture (replaced with buffer) and at 0 min (quenched immediately after adding cofactors). Incubations were carried out at 37 °C for 0, 15, 30, and 60 min (for stability) or 60 min (for metabolite ID). Reactions were terminated by adding 200 µL of ice-cold acetonitrile containing IS (diclofenac).
Metabolite identification was performed using samples generated from the in vitro liver S9 incubations (final substrate concentration 20 µM, 60 min incubation) and plasma samples from the in vivo IP administration study. Samples were analyzed using an Agilent 6530 Q-TOF LC-MS/MS system (Agilent Technologies Korea Ltd., Seoul, Republic of Korea). Data processing and metabolite identification were performed using Agilent MassHunter Metabolite ID software (ver. B.04.00), searching for expected biotransformations (e.g., oxidation, demethylation, glucuronidation, sulfation, GSH conjugation) and comparing MS/MS fragmentation patterns of metabolites with the parent drug.
Qualitative analysis for metabolite identification was performed using the same LC system coupled to an Agilent 6530 Q-TOF mass spectrometer system (Agilent Technologies Korea Ltd., Seoul, Republic of Korea) with a dual AJS ESI source operating in positive ion mode. The chromatographic conditions were identical to those used for quantitative analysis.
The ion source parameters for the mass spectrometer were set as follows: gas temperature 325 °C, gas flow 12 L/min, nebulizer pressure 35 psi, sheath gas temperature 350 °C, and sheath gas flow 10 L/min. Data were acquired in MS scan mode (m/z 100–1000) and targeted MS/MS or Auto MS/MS mode. Data acquisition and processing were performed using Agilent MassHunter Qualitative Analysis (ver. B.05.00) and Metabolite ID software (ver. B.04.00).
To elucidate the metabolic pathways, metabolite identification studies were conducted using in vitro liver S9 fractions incubations (20 µM substrate) and in vivo plasma samples from mice administered an IP dose (200 µg/mouse). Metabolites were identified based on accurate mass measurements, isotopic patterns, and MS/MS fragmentation patterns compared to the parent compound using LC-Q-TOF MS/MS system (Agilent Technologies Ltd., Seoul, Republic of Korea).

Consider `CN(C)CCCOc1nn(Cc2ccccc2)c2ccccc12` [benzydamine, Benzydamine hydrochloride], for which the “Effect of heat inactivation (FMO) on metabolism” value in data set [1] and in data set [2] was “significantly inhibited the metabolism” in each case.
Turning to `CCC(C)n1ncn(-c2ccc(N3CCN(c4ccc(OCC5COC(Cn6cncn6)(c6ccc(Cl)cc6Cl)O5)cc4)CC3)cc2)c1=O` (stereo not drawn) [Itraconazole, itraconazole, reference compound], the fraction unbound at 4 h, 3 µM in data set [3] was 0.028 ± 0.006; in data set [4], 0.019 ± 0.002.
For the compound `CNC(=C[N+](=O)[O-])NCCSCc1ccc(CN(C)C)o1` [Ranitidine, ranitidine], the figures for the fraction unbound at 4 h, 10 µM in data set [5] and in data set [6] were 0.85 ± 0.006 and 0.888 ± 0.054, respectively.
With `C[N+](C)([O-])CCn1c(=O)c2nc(-c3ccc(C(F)(F)F)cc3)oc2c2ccccc21` [KB-1517 M2], in data set [7] (KB-1517 20 µM), the “Species in whose liver S9 the metabolite was detected” value (“Species” below) is “H, M”.
As to `CN(CCO)c1nc2ccccc2c2oc(-c3ccc(C(F)(F)F)cc3)nc12` [KB-1518 M1], the “Species” value in data set [7] (KB-1518 20 µM) is on record as “H, M”.
Still for that read-out and setting: the same measure for `OCCNc1nc2ccccc2c2oc(-c3ccc(C(F)(F)F)cc3)nc12` [KB-1518 M2]: “H, M”; for `C[N+](C)([O-])CCOc1nc2ccccc2c2oc(-c3ccc(C(F)(F)F)cc3)nc12` [KB-1518 M3]: “H, M”.
With `Cc1cc(=O)n(-c2ccccc2)n1C` [Antipyrine, antipyrine, reference compound], the fraction unbound at 4 h, 3 µM in data set [3] was 0.946 ± 0.026; in data set [4] it was 0.937 ± 0.011.
In the case of `CNCCn1c(=O)c2nc(-c3ccc(C(F)(F)F)cc3)oc2c2ccccc21` [KB-1517 M1], the “Species” value in data set [7] (KB-1517 20 µM) is on record as “H, M”.
With `CC(C)NCC(O)COc1cccc2ccccc12` (stereo not drawn) [Propranolol, propranolol], the fraction unbound at 4 h, 10 µM was determined as 0.262 ± 0.026 in data set [5] and 0.247 ± 0.005 in data set [6].
